Laboratory results: PubChem BioAssay (NCI)
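The concentration for 50% growth inhibition is given as GI50. At the TGI there is no net growth.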

Columns and labels:
Assay in all cases: NCI-60 cell line screen, 384-well format
[1] = tested on: RPMI-8226 leukemia
[2] = tested on: HL-60(TB) leukemia
[3] = tested on: CAKI-1 renal
[4] = tested on: MDA-MB-468 breast
[5] = tested on: MALME-3M melanoma
[6] = tested on: OVCAR-3 ovarian
[7] = tested on: BT-549 breast
[8] = tested on: SK-MEL-5 melanoma
[9] = tested on: SN12C renal
[10] = tested on: UO-31 renal
[11] = tested on: SK-MEL-28 melanoma
[12] = tested on: U251 glioblastoma
[13] = tested on: OVCAR-8 ovarian
[14] = tested on: M14 melanoma
[15] = tested on: UACC-257 melanoma
[16] = tested on: SW-620 colon
[17] = tested on: MDA-MB-435 melanoma
[18] = tested on: SF-539 CNS
[19] = tested on: HS 578T breast
[20] = tested on: KM12 colon
[21] = tested on: SF-268 CNS
[22] = tested on: SR leukemia
[23] = tested on: DU-145 prostate
[24] = tested on: SK-OV-3 ovarian
[25] = tested on: IGROV1 ovarian
[26] = tested on: HCC-2998 colon
[27] = tested on: PC-3 prostate
[28] = tested on: SF-295 CNS
[29] = tested on: LOX IMVI melanoma
[30] = tested on: NCI-H226 lung
[31] = tested on: HOP-62 NSCLC
[32] = tested on: EKVX NSCLC
[33] = tested on: HOP-92 NSCLC
[34] = tested on: CCRF-CEM leukemia
[35] = tested on: ACHN renal
[36] = tested on: A498 renal
[37] = tested on: HCT-116 colon
[38] = tested on: NCI-H522 lung
[39] = tested on: MDA-MB-231 breast
[40] = tested on: OVCAR-5 ovarian
[41] = tested on: HT29 colon
[42] = tested on: HCT-15 colon
[43] = tested on: NCI/ADR-RES ovarian
[44] = tested on: TK-10 renal
[45] = tested on: MCF7 breast
[46] = tested on: COLO 205 colon
[47] = tested on: NCI-H460 NSCLC
[48] = tested on: T-47D breast
[49] = tested on: OVCAR-4 ovarian
[50] = tested on: RXF 393 renal
[51] = tested on: 786-0 renal
[52] = tested on: A549 NSCLC
[53] = tested on: MOLT-4 leukemia
[54] = tested on: NCI-H322M lung
[55] = tested on: UACC-62 melanoma
[56] = tested on: NCI-H23 lung
[57] = tested on: SNB-19 CNS
[58] = tested on: SNB-75 CNS

`CS(=O)(=O)c1ccc(Oc2cc(F)cc(C#N)c2)c2c1[C@H](O)[C@H](F)[C@@H]2F` showed a GI50 [1] of over 100 µM, a TGI [1] of over 100 µM and a GI50 [2] of over 100 µM. The TGI [2] was over 100 µM, the GI50 [3] was over 100 µM and the TGI [3] was over 100 µM. For the same compound, the GI50 [4] was over 100 µM, the TGI [4] was over 100 µM and the GI50 [5] was over 100 µM. It also gave a TGI [5] of over 100 µM, a GI50 [6] of over 100 µM and a TGI [6] of over 100 µM. It also gave a GI50 [7] of over 100 µM, a TGI [7] of over 100 µM and a GI50 [8] of over 100 µM. It also gave a TGI [8] of over 100 µM, a GI50 [9] of over 100 µM and a TGI [9] of over 100 µM. It also gave a GI50 [10] of over 100 µM, a TGI [10] of over 100 µM and a GI50 [11] of over 100 µM. It also gave a TGI [11] of over 100 µM, a GI50 [12] of over 100 µM and a TGI [12] of over 100 µM. It also gave a GI50 [13] of over 100 µM, a TGI [13] of over 100 µM and a GI50 [14] of over 100 µM. For the same compound, the TGI [14] was over 100 µM, the GI50 [15] was over 100 µM and the TGI [15] was over 100 µM. It also gave a GI50 [16] of over 100 µM, a TGI [16] of over 100 µM and a GI50 [17] of over 100 µM. For the same compound, the TGI [17] was over 100 µM, the GI50 [18] was over 100 µM and the TGI [18] was over 100 µM. It also gave a GI50 [19] of over 100 µM, a TGI [19] of over 100 µM and a GI50 [20] of over 100 µM. For the same compound, the TGI [20] was over 100 µM, the GI50 [21] was over 100 µM and the TGI [21] was over 100 µM. For the same compound, the GI50 [22] was over 100 µM, the TGI [22] was over 100 µM and the GI50 [23] was over 100 µM. It also gave a TGI [23] of over 100 µM, a GI50 [24] of over 100 µM and a TGI [24] of over 100 µM. It also gave a GI50 [25] of over 100 µM, a TGI [25] of over 100 µM and a GI50 [26] of over 100 µM. For the same compound, the TGI [26] was over 100 µM, the GI50 [27] was over 100 µM and the TGI [27] was over 100 µM. For the same compound, the GI50 [28] was over 100 µM, the TGI [28] was over 100 µM and the GI50 [29] was over 100 µM. For the same compound, the TGI [29] was over 100 µM, the GI50 [30] was over 100 µM and the TGI [30] was over 100 µM. It also gave a GI50 [31] of over 100 µM, a TGI [31] of over 100 µM and a GI50 [32] of over 100 µM. The TGI [32] was over 100 µM, the GI50 [33] was over 100 µM and the TGI [33] was over 100 µM. The GI50 [34] was over 100 µM, the TGI [34] was over 100 µM and the GI50 [35] was over 100 µM. It also gave a TGI [35] of over 100 µM, a GI50 [36] of over 100 µM and a TGI [36] of over 100 µM. The GI50 [37] was over 100 µM, the TGI [37] was over 100 µM and the GI50 [38] was over 100 µM. The TGI [38] was over 100 µM, the GI50 [39] was over 100 µM and the TGI [39] was over 100 µM. It also gave a GI50 [40] of over 100 µM, a TGI [40] of over 100 µM and a GI50 [41] of over 100 µM. It also gave a TGI [41] of over 100 µM, a GI50 [42] of over 100 µM and a TGI [42] of over 100 µM. It also gave a GI50 [43] of over 100 µM, a TGI [43] of over 100 µM and a GI50 [44] of over 100 µM. The TGI [44] was over 100 µM, the GI50 [45] was over 100 µM and the TGI [45] was over 100 µM. The GI50 [46] was over 100 µM, the TGI [46] was over 100 µM and the GI50 [47] was over 100 µM. The TGI [47] was over 100 µM, the GI50 [48] was over 100 µM and the TGI [48] was over 100 µM. It also gave a GI50 [49] of over 100 µM, a TGI [49] of over 100 µM and a GI50 [50] of over 100 µM. It also gave a TGI [50] of over 100 µM, a GI50 [51] of over 100 µM and a TGI [51] of over 100 µM. The GI50 [52] was over 100 µM, the TGI [52] was over 100 µM and the GI50 [53] was over 100 µM. The TGI [53] was over 100 µM, the GI50 [54] was over 100 µM and the TGI [54] was over 100 µM. The GI50 [55] was over 100 µM, the TGI [55] was over 100 µM and the GI50 [56] was over 100 µM. It also gave a TGI [56] of over 100 µM, a GI50 [57] of over 100 µM and a TGI [57] of over 100 µM. For the same compound, the GI50 [58] was over 100 µM and the TGI [58] was over 100 µM.
